Reference: patent publication US10537567B2, “Kinase inhibitors for treatment of disease” (BioAxone BioSciences, Inc., priority 2017, dated 2020)

Columns and labels:
[1] = tested on: retinal ganglion cells; experiment: RGC dendritic arbor in Hb9-GFP glaucoma mice; format: in vivo; details: 1 month, weekly microbead injection, daily eye drops
From the text: To evaluate changes in the RGC dendritic arbor in glaucoma and the ability of the API to prevent neuronal loss in the retina, mice are used which carry an enhanced GFP (eGFP) driven by the Hb9 promoter (B6.Cg-Tg(Hlxb9-GFP)1Tmj/J; Jackson Labs), which directs GFP expression to the on-off direction-sensitive ganglion cell (ooDSGC) sub-population of retinal ganglion cells (Trenholm et al. 2011 Neuron. 71(4): p. 683-694). These mice allow visualization of non-overlapping RGCs for unambiguous identification of individual dendritic arbors. Treated and control glaucoma eyes are examined, as well as normal eyes 1 month after weekly microbead injection and daily eye drops. The eyes are fixed by perfusion and prepared for retinal whole mounts, and the labeled ganglion cells visualized by fluorescence microscopy. Images are imported into ImageJ and analyzed for dendritic field area (using the polygon tool to join points along the perimeter of the field) and subjected to Sholl analysis using the plugin for Image J to be able to characterize dendritic branching and complexity of normal, glaucoma/treated and glaucoma/control RGCs.

[2] = tested on: cultured primary cortical neurons; experiment: Beta-amyloid and phosphorylated Tau in cortical neurons from 3×-Tg AD mice; format: cell-based; details: 1, 10 or 50 μM, 24 or 48 hours
From the text: Alzheimer's disease is the most common cause of dementia in the population. Pathologic hallmarks of the disease include the presence in the brain of beta-amyloid bearing plaques and neurofibrillary tangles containing hyperphosphorylated microtubule-associated protein Tau. The 3×-Tg AD mouse model was developed to serve as a rodent model for the development of the biochemical hallmarks of human Alzheimer's disease. This mouse strain harbors 3 transgenes encoding mutant Presenilin-1 (PS1), human Swedish mutant Amyloid Precursor Protein (APP-Swe), and mutant P301L-Tau and is obtained from Jackson Laboratories (Bar Harbor, Me.). […] Similarly, Cancino et al (Cancino et al.; Neurobiol. Aging; 2011; 32:1249) identified the role of increased c-Abl kinase activity in transgenic AD model mice to direct increased phosphorylation of Tau.
Whole brain cortices from one day old (P1) 3×-Tg AD mice (Jackson Labs) are dissected and then dissociated using trypsinization and trituration before being cultured under serum free conditions (NeuroBasal Medium plus B27 supplements; Thermo-Fisher) on dishes pre-coated with poly-ornithine and laminin as growth substrate. The cultures are plated in 24 well tissue culture plates, with 100 to 200,000 cells per well at plating. Cultures are maintained for 5 to 7 days, with half-volume medium changes every other day, before testing of inhibitor treatments. […] Protein extracts are prepared in RIPA buffer and protein concentrations in each extract are determined using the Pierce BCA assay (Pierce Biotechnology). Equivalent amounts of protein from each extract are separated on 4-12% polyacrylamide Bis-Tris gels run in MES buffer (Thermo-Fisher). After transferring to PVDF membranes, the Western blots are processed to examine the levels of beta-amyloid precursor protein (βPAPP), the peptide β-amyloid (Aβ), and levels of both phosphorylated and total tau protein.
For these Western blotting experiments, hyperphosphorylated Tau is detected using antibody AT8-phospho-Ser-202/Thr-205 (Pierce Biotechnology, Rockford, Ill.); total phosphorylated and nonphosphorylated tau is detected with Tau5 antibody (Calbiochem, San Diego, Calif.); total PAPP is detected using monoclonal antibody 22C11 (EMD-Millipore) and Aβ peptide levels are detected using monoclonal antibody 6E10 (BioLegend; San Diego, Calif.). The form of Aβ present can be estimated by comparison to purified Aβ 1-40, 1-42 peptides (AnaSpec; Fremont, Calif.) run as standards on companion gels.

[3] = tested on: GPCRs, transporters, ion channels, nuclear receptors, non-kinase enzymes; experiment: Safety screen of 88 targets; set-up: species or system human; details: agonistic or antagonistic
From the text: These targets include GPCRs, transporters, ion channels, nuclear receptors, non-kinase enzymes.

[4] = target: Abl (Homo sapiens, UniProt P00519); experiment: Second kinome screen; format: binding
From the text: In the kinome screen BA-2017 had fewer off-target hits (Table 1) than BA-1049. […] An interesting hit from the kinome screen was on Abl (Table 1), an oncogene that also regulates many cellular activities, including vascular leakage.

[5] = target: ROCK1 (Homo sapiens, UniProt Q13464); experiment: IC50 determined at 10 μM ATP; format: biochemical; set-up: purchased Eurofins Testing (Dundee, Scotland, UK); details: 10 μM ATP (below Km)
[6] = target: PKA (Homo sapiens, UniProt P17612); experiment: Single dose inhibition assay of key AGC class kinases; format: biochemical; details: 10 μM API
Description: Molecular modeling and rational drug design were used to create and screen over 50 ROCK inhibitors. These ROCK inhibitors were screened for selectivity for ROCK2 and ability to promote neurite outgrowth. Several lead inhibitors came out of this screen and further screened for inhibition of key AGC class kinases by a single dose inhibition assay performed with 10 μM active pharmaceutical ingredient (API). The lead compound is chiral. […] They have different selectivity for ROCK2 (Table 2) and different off-target profiles (Table 1; FIG. 1).

[7] = target: ROCK2 (Homo sapiens, UniProt O75116); experiment: IC50 determined at 10 μM ATP; format: biochemical; set-up: purchased Eurofins Testing (Dundee, Scotland, UK)
From the text: The data in Table 2 were obtained at ATP concentration below those corresponding to Km.

[8] = Hyperemia / ocular tolerability testing in Dutch-Belted rabbits; format: in vivo, Dutch-Belted rabbits (Oryctolagus cuniculus)
From the text: To test for hyperemia, the rabbit is a standard species used in ocular tolerability studies based upon historical data and FDA requirements. For this study, four (4) Dutch-Belted rabbits (Oryctolagus cuniculus) were manually restrained to facilitate topical dosing followed by ocular examinations, and IOP measurements. Prior to placement on study, each animal underwent an ophthalmic examination (slit-lamp biomicroscopy, indirect ophthalmoscopy). Ocular findings were scored according to a modified McDonald-Shadduck Scoring System. […] Test and control articles were dosed in the morning at approximately the same time every day (˜8 am±2 hours). Animals were observed within their cages once daily throughout the study period. […] Any abnormal observation was reported to the Study Director. Ocular findings were scored according to a modified McDonald-Shadduck Scoring System. The scoring system 0=normal and numbers of 1-4 score mild to severe.
(Table 3). Thus, these ROCK inhibitors have promise for therapeutic use in treating eye pathologies.

[9] = Day 3, 1% topical once daily, modified McDonald-Shadduck score, 0=normal, 1-4 mild to severe, cells = rabbit 1/2, OD/OS

ROCK2, sequence (O75116 whole entry): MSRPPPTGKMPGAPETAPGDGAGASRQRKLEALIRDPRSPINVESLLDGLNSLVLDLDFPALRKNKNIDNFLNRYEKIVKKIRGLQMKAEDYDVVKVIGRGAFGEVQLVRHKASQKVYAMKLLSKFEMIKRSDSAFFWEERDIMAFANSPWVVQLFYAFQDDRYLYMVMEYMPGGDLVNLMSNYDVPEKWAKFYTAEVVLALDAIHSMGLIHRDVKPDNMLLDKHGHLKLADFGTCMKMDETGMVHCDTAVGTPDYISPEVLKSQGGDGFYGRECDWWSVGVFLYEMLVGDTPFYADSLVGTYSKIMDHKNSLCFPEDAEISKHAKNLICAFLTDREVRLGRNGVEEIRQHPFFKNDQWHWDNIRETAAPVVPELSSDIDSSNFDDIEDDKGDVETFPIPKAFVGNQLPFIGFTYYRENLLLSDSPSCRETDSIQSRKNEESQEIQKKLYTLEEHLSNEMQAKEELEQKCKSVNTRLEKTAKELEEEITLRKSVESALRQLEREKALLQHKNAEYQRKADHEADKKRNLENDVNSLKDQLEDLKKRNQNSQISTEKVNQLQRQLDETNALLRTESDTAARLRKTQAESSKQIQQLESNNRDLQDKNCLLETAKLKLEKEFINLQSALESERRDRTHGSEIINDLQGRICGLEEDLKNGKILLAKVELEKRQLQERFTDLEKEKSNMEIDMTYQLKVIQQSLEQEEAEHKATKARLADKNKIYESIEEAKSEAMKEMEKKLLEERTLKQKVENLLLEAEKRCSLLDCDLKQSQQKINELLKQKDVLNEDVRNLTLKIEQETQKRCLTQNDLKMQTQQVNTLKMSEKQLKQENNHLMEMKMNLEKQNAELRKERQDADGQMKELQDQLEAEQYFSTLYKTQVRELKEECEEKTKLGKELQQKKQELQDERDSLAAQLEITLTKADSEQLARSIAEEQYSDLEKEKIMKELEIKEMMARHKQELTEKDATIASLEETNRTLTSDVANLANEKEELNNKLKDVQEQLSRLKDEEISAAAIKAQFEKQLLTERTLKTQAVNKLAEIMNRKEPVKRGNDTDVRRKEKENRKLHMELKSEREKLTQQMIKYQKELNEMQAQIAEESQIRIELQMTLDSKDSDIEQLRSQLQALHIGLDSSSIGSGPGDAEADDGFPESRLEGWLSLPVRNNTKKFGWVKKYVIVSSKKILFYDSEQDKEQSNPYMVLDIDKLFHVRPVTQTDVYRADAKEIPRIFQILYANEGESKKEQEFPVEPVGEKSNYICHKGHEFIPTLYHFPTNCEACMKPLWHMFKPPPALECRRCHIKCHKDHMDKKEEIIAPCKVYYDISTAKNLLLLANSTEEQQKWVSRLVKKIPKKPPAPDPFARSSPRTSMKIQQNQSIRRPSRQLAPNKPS
ROCK1, sequence (Q13464 whole entry): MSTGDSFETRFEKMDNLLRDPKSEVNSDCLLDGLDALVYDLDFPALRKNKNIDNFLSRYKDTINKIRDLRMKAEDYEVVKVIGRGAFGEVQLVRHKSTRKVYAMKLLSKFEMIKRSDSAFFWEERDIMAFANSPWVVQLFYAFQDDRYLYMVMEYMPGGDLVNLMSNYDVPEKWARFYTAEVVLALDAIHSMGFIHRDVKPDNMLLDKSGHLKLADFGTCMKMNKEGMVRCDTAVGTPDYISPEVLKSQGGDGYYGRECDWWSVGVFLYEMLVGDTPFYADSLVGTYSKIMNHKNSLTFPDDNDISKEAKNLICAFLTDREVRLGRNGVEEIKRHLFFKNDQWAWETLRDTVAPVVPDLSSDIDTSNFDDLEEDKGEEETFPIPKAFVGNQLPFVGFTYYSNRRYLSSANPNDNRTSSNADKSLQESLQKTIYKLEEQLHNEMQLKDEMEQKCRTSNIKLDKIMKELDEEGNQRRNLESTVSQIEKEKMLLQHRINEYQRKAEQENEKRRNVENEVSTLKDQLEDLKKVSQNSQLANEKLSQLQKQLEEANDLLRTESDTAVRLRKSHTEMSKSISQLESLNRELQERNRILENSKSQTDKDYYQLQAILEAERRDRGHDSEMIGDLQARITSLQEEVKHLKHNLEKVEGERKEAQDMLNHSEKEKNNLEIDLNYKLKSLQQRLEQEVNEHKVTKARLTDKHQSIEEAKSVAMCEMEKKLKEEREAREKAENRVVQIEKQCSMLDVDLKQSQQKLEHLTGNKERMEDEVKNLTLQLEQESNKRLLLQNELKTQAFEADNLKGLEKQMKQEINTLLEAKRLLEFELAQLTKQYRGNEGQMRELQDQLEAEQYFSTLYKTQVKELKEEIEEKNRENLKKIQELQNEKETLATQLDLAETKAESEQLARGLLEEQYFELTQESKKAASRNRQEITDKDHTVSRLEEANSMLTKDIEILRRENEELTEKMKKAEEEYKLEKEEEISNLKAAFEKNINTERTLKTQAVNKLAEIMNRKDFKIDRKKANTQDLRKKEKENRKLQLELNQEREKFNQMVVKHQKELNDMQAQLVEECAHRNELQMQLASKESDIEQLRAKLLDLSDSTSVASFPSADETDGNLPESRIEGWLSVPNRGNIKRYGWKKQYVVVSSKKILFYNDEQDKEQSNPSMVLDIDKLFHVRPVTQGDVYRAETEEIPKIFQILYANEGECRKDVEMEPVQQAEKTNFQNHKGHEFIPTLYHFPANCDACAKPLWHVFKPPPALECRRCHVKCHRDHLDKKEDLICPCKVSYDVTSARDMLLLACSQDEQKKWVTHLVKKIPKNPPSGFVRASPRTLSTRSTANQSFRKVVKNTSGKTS
Abl, sequence (P00519 whole entry): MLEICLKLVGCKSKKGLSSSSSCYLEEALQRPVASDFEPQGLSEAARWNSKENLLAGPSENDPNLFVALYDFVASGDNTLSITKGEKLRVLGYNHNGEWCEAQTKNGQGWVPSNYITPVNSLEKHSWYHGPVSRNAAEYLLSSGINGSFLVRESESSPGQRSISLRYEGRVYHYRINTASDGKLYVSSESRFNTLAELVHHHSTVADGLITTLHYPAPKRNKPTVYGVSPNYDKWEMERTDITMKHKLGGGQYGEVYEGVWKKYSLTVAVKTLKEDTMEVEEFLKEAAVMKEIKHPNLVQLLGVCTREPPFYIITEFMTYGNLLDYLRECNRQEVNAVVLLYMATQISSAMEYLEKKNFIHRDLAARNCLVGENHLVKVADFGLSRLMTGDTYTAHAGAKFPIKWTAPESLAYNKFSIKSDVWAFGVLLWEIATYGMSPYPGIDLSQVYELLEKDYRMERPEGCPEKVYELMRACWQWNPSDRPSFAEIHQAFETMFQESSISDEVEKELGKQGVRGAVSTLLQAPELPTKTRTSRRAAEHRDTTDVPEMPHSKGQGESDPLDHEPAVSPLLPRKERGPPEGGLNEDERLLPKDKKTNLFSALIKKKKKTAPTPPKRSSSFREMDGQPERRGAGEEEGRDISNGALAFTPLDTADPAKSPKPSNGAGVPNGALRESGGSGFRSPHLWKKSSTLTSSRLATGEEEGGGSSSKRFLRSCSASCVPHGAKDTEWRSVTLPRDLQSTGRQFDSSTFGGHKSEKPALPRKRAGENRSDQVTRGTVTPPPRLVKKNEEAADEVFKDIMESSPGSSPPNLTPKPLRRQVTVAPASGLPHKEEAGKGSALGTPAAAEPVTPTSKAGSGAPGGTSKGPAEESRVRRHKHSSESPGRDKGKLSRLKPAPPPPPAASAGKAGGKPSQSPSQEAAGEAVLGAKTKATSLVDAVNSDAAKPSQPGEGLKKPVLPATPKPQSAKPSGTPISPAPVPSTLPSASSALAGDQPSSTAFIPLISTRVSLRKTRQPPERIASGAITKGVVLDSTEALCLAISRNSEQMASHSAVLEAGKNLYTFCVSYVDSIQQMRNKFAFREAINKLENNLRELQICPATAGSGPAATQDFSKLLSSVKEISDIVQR

SMILES	Retinal ganglion cell dendritic arbors [1]	Accumulation of phosphorylated forms of Tau protein [2]	Production of Aβ peptide [2]	Off-target hits in safety screen [3]	Binding to Abl [4]	IC50 [5] [µM]	Inhibition of PKA [6]	IC50 ([7]; 10 μM ATP (below Km), * = preliminary) [nM]	Fold-difference ([7]; ROCK1 vs ROCK2 IC50 at 10 μM ATP)	Aqueous Flare [8, 9]	Cellular Flare [8, 9]	Conjunctival Congestion [8, 9]	Conjunctival Discharge [8, 9]	Conjunctival Swelling [8, 9]	Cornea [8, 9]	Iris Involvement [8, 9]	Pannus [8, 9]	Pupillary Response [8, 9]	Surface Area of Cornea Involvement [8, 9]	Hyperemia / adverse ocular findings ([8]; daily repeat topical dosing, 1%, three days)
C[C@H](N)C1CCN(S(=O)(=O)c2cccc3c(=O)[nH]ccc23)CC1 [BA-2057]	protect and/or restore retinal ganglion cell dendritic arbors	dose-dependent reduction in the accumulation of phosphorylated forms of Tau protein	reduced production of Aβ peptide	no significant off target hits were detected																
C[C@H](N)C1CCN(S(=O)(=O)c2cccc3cnccc23)CC1 [BA-1076]	protect and/or restore retinal ganglion cell dendritic arbors	dose-dependent reduction in the accumulation of phosphorylated forms of Tau protein	reduced production of Aβ peptide	no significant off target hits were detected	a second kinome screen did not confirm significant binding of BA-1076 to Abl	10	Neither compound inhibited PKA	730	14	0	0	0	0	0	0	0	0	0	0	did not cause hyperemia
